Reference: US20240124520A1, “N-ACYLATED HISTIDINE DIPEPTIDES AS ANTICANCER AGENTS” (THE BOARD OF TRUSTEES OF THE LELAND STANFORD JUNIOR …, priority 2019, published 2024)
Non-standard residues stand in square brackets, D forms with d. Residues, ends and D or L forms follow the SMILES beside them. *: point of attachment. Palmitoyl = CCCCCCCCCCCCCCCC(=O)*

How the values were obtained:
[1] = tested on: OVCAR-3 human ovarian cancer cells; assay: Cell Titer Blue in vitro cell viability assay, OVCAR-3; assay type: cell-based; conditions: 72 h, OVCAR-3 (RPMI), 3 days at 37° C.
Experimental: (§1) FIG. 14: Dose Response curve for MBC0179 with OVCAR-3 cells. Compound MBC0179 was incubated with OVCAR-3 human ovarian cancer cells at the indicated concentrations for 3 days at 37° C. prior to Cell Titer Blue fluorescence-based cell viability assay. Normalized cell viability data, expressed as a percentage, are averaged from three biological replicates and standard error represented by error bars for each averaged data point (empty squares). The compound concentrations are represented on log scale on the x-axis in μM units. Data were analyzed using free software called DrFit, as described in Nature Scientific Reports, Article number: 14701, (2015). […]
(§2) The Cell Titer Blue reagent (available from Promega, Inc.) is a buffered solution containing resazurin, a compound that is converted to resorufin, a detectable fluorescent product, by metabolically active cells. The fluorescence intensity of resorufin product therefore serves as a proportional measure of the number of viable cells, permitting changes in cell viability within cancer or other cell lines to be monitored in response to the addition of cytotoxic or cytostatic agents. […] Metastases to the lungs may be conveniently quantified by a well-established clonogenic assay. […]

[2] = tested on: ZR-75-30 human breast cancer cells; assay: Cell Titer Blue in vitro cell viability assay, ZR-75-30; assay type: cell-based; conditions: 72 h, ZR-75-30 (DMEM), 3 days at 37° C.
Experimental: as §1, with “10:” for “14:”, “ZR-75-30” for “OVCAR-3”, “breast” for “ovarian”
as §2

[3] = tested on: 4T1 murine breast cancer cell line-derived mammary tumors, metastasis to the lungs; assay: 4T1 mouse breast cancer lung metastasis study (clonogenic assay); assay type: in vivo; conditions: Balb/c mice
Experimental: FIG. 17: 4T1 Mouse Breast Cancer Lung Metastasis Study with MBC0179. Compound MBC0179 (in 7% w/v Cremophore EL/10% v/v ethanol/[…] vehicle) or vehicle only was administered intravenously to three groups of six Balb/c mice (8 week old) carrying 4T1 murine breast cancer cell line-derived mammary tumors, one week post-implantation. After twice weekly dosing for four weeks with vehicle (blue bar), 10 mg/kg (red bar) or 15 mg/kg (green bar) MBC0179, the mice were humanely euthanized according to IACUC guidelines and lungs excised for 4T1 colonogenic assay in order to provide a measure of 4T1 metastasis to the lungs. The colony counts were plotted, averaged and standard error calculated (error bars). […] Additonally, the percentage reduction in lung-derived 4T1 colonies between the vehicle and 15 mg/kg MBC0179 treatment group was calculated based on the average colony counts for each group, normalizing to the vehicle group, indicated on chart.
The Cell Titer Blue reagent (available from Promega, Inc.) is a buffered solution containing resazurin, a compound that is converted to resorufin, a detectable fluorescent product, by metabolically active cells. […] Metastases to the lungs may be conveniently quantified by a well-established clonogenic assay. […]

[4] = tested on: 4T1 mouse triple-negative breast cancer cells; assay: Cell Titer Blue in vitro cell viability assay, 4T1; assay type: cell-based; conditions: 72 h, 4T1 (RPMI), 3 days at 37° C.
Experimental: as §1, with “16:” for “14:”, “4T1” for “OVCAR-3”, “4T1 mouse triple-negative breast” for “OVCAR-3 human ovarian”
as §2

- IC50 [1]: 9.22 µM
- IC50 [2]: 9.7 µM
- IC50 [4]: 25.5 µM
Structure (SMILES): CCCCCCCCCCCCCCCC(=O)N[C@H](Cc1c[nH]cn1)C(=O)N[C@@H](C(=O)OCC)C(C)C [Compound 5, N-[N-(1-oxohexadecyl)-D-histidyl]-D-valine ethyl ester] (Palmitoyl-[dH]-[dV]-OEt)
- lung metastases (average 4T1 colony counts) ([3]; 10 mg/kg and 15 mg/kg intravenous twice weekly vs vehicle): dose-dependent reduction in lung metastases
- percent reduction in lung metastases ([3]; 15 mg/kg intravenous twice weekly for four weeks vs vehicle, lung-derived 4T1 colonies, p=0.03, two-tailed t-test): 74.4%
